Here are results for one substance from article PMC6152024 (Molecules : A Journal of Synthetic Chemistry and Natural …, 2017).

Format in all cases: in vitro ADME
The target in test [1] is T1, CYP3A (Homo sapiens, UniProt P08684). Nature of the test: IC50 shift assay (time- and NADPH-dependent inhibition) in HLMs. How it is done:
A NADPH regenerating system (NADPH-gs, containing 10 mM glucose-6-phosphate, 5 mM magnesium chloride, 1 U/mL glucose-6-phosphate dehydrogenase and 1 mM NADP+) was constructed. The metabolite of Tes, 6OH-Tes, was assayed by UHPLC-MS method (I) for CYP3A activity assessment.
In a final volume of 100 µL, Gom A at different concentrations (0, 0.08, 0.31, 0.63, 2.5, 10 and 40 µM) was preincubated with 10 × HLMs (5 mg/mL) at 37 °C with NADPH-gs in PBS (0.1 M). After 30 min, the incubation mixture was diluted 10 folds using PBS (0.1 M). Then 100 µL of the diluted mixture was added into a secondary incubation containing NADPH-gs and 25 µM Tes. The final volume was 200 µL. After 10 min incubation, the reaction was terminated by the addition of 200 µL ice-cold acetonitrile containing 18 ng/mL phenacetin (IS-I). […]
Pharmacokinetic profiles of CTX and DCCTX were estimated by one-compartmental model using the DAS 2.0 software ([…], Medical College of Wannan, Anhui, China). Data were expressed as mean ± SD. […] IC50 values of Gom A were determined by nonlinear regression analysis using GraphPad Prism 5.01 software (GraphPad Software Inc., San Diego, CA, USA). The mode of inhibition was verified by Lineweaver-Burk plots of the enzyme kinetic data, and the KI value was determined by linear regression analysis with GraphPad Prism 5.01 (GraphPad Software Inc.). […]

Test [2] concerns the target T1, CYP3A. Nature of the test: Effect on DCCTX production from CTX in HLMs. The settings on record: 10 µM inhibitor, HLMs 0.5 mg/mL, CTX substrate; 60 min. As to the method: The effect of Gom A on CYP3A metabolism of CTX in HLMs was investigated. […] Considering the difficulty for direct CAA determination, DCCTX was assayed to reflect CAA production using an established UHPLC-MS method (II).
The CYP3A inhibitor ketoconazole (Keto) was used as positive control. Briefly, various concentrations of Gom A and Keto (0.01, 0.1, 1 and 10 µM) were incubated with HLMs (0.5 mg/mL) in PBS (0.1 M) containing NADPH-gs and 100 µM CTX in a total volume of 200 µL. After a 5 min warm up period, reactions were initiated with addition of NADPH-gs. Incubations were conducted at 37 °C for 60 min and then terminated by the addition of 200 µL ice-cold acetonitrile containing 6 ng/mL of TNZ (IS-II).

The target of test [3] is T1, CYP3A. Nature of the test: KI and kinact assay (CYP3A inactivation) in HLMs. Set-up: tissue Meilun Biotechnology Co., Ltd. (Dalian, China) lot No. M0202A; host or cells: pooled (mixed) male human liver microsomes. The settings on record: preincubation 0-30 min with NADPH-gs, 100 µM Tes. How it is done:
The following steps were similar as described in the IC50 shift assays. […] All the incubations were performed in triplicate.
Pharmacokinetic profiles of CTX and DCCTX were estimated by one-compartmental model using the DAS 2.0 software ([…], Medical College of Wannan, Anhui, China). Data were expressed as mean ± SD. Comparisons between two groups were performed using one-way ANOVA followed by LSD test in the condition of variance homogeneity or Dunnett T3 test in the case of variance heterogeneity. The differences were considered to be statistically significant at * p < 0.05 and ** p < 0.01. IC50 values of Gom A were determined by nonlinear regression analysis using GraphPad Prism 5.01 software (GraphPad Software Inc., San Diego, CA, USA). The mode of inhibition was verified by Lineweaver-Burk plots of the enzyme kinetic data, and the KI value was determined by linear regression analysis with GraphPad Prism 5.01 (GraphPad Software Inc.). The initial inactivation rate constant (kobs, min^−1) was estimated from the initial slope of the linear regression line at each concentration of Gom A. Then the values of kobs were plotted versus Gom A concentration, and the maximal inactivation rate constant kinact, along with the concentration of inactivator (at which the rate of the inactivation is half maiximal) KI values, were determined using Equation (1). […]

T1 sequence (P08684 2-503): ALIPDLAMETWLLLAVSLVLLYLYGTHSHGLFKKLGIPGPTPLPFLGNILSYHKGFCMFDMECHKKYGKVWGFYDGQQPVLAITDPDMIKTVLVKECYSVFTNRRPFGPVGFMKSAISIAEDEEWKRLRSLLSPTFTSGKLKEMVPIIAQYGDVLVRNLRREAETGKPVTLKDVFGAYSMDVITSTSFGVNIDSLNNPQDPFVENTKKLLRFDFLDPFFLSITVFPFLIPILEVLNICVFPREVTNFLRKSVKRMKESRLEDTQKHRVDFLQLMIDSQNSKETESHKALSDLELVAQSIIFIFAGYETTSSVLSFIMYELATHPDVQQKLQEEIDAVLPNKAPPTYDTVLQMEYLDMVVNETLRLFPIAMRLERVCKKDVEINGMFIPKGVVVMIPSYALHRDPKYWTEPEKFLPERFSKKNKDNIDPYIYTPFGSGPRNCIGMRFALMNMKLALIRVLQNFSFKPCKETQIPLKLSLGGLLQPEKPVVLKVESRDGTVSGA

Turning to Gomisin A [Gom A], on CYP3A [1] (Gom A 1 µM preincubated 30 min with vs without NADPH-gs, data not shown), the “NADPH dependence of CYP3A inhibition” value is given as “more potent when Gom A was preincubated with NADPH”. Also, on CYP3A [1] (with vs without 30 min preincubation), the “shift in IC50” value is 1.8 fold. In addition, the “DCCTX production, % of that in control group” value on CYP3A [2] amounted to 15%. Besides, on CYP3A [3], the kinact (usually the maximal first-order rate at which the target is inactivated) amounted to 1.96 min⁻¹.
